Earlier results, collected in patent US7267830B2, “Composition and methods for inhibiting the progression macular degeneration and promoting healthy vision” (Alcon, Inc., priority 2003, dated 2007).
Read-outs that look alike come from different tables or passages of the source.

How the values were obtained:
[1] = system: macular degeneration changes; conditions: zinc supplement, Newsome 1988

With [Zn] [Zinc] as the compound, how does the “retarding macular degeneration changes versus placebo” value [1] read?
The value was “significantly better than placebo”.

What about the tolerability (100 mg zinc a day (Wagner 1985)) of the same compound?
The tolerability was “well tolerated without difficulty”.

What about the tolerability (150 mg of zinc a day (Wagner 1985)) of the same compound?
Its tolerability is “well tolerated without difficulty”.

And the tolerability (about 200 mg of zinc per day)?
Its tolerability is “well-tolerated”.

And the potential side effects (about 200 mg of zinc per day (Fischer 1983))?
The potential side effects was “blocking copper absorption”.
